Laboratory results as given in patent US8927561B2, “Pyrimidinedione anti-viral compounds” (Kineta, Inc., priority 2010, dated 2015).

Legend:
[1] = tested on: Murine Encephalomyocarditis virus (EMCV); assay: EMCV antiviral assay (MTS cell viability); format: cell-based; settings: Huh7 cells, EMCV 250 pfu, 18 h post-infection
[2] = tested on: influenza A virus (A/WSN/33); assay: microbe, parasite or virus in culture; format: cell-based
Description: (§1) Chemical analogs of KIN500 are tested for in vitro antiviral activity against HCV genotype 2A and influenza A virus (A/WSN/33). Viral protein and RNA levels are assessed following drug treatment using the assays described above.

[3] = tested on: HCV genotype 2A; assay: HCV focus-forming assay (FFA); format: cell-based; settings: Hepatitis C virus
Description: as §1

[4] = in vitro
[5] = tested on: ISG expression; assay: ISG expression enhancement; format: cell-based

COc1ccc(NC(=O)Cn2c(=O)n(Cc3ccco3)c(=O)c3sc4ccccc4c32)c(OC)c1 [KIN500, 2-[3-(furan-2-ylmethyl)-2,4-dioxo-3,4-dihydro[1]benzothieno[3,2-d]pyrimidin-1(2H)-yl]-N-(2,4-methoxyphenyl)acetamide]
Cell viability post-infection ([1]; 5 μM): ~0.75 | Cell viability post-infection ([1]; 10 μM): ~1.0 | Cell viability post-infection ([1]; 20 μM): ~1.05 | Therapeutic index (TI) (CC50/IC50) ([2]; CC50/IC50): 11 | IC50 ([2]; Influenza A virus, WSN, read-out: Influenza nucleoprotein (NP) ELISA (IC50)): 4.6 µM | IC50 [3]: 19.1 µM | CC50 [4]: > 50 µM | enhancement of ISG expression [5]: 18 fold
